Measured values taken from patent US12628857B2, “Compositions comprising human milk oligosaccharides for use in a subject to support night sleep duration” (SOCIETE DES PRODUITS NESTLE S.A., priority 2020, dated 2026).

Key:
breast-fed children [1] = assay: Correlation of breast milk HMO levels with sleep duration (BISQ), BCP-Enriched cohort; type: in vivo, human; settings: FIG. 1
From the text: (§1) The “BISQ” questionnaire is the brief infant sleep questionnaire, this questionnaire has been developed to screen sleep problems in infants and young children. This questionnaire has also been commonly used in sleep research to quantify quantity and quality of sleep as well as sleep maturation (Sadeh A. “Sleep assessment method” Monographs Soc Res Child Dev 80(1) 2015).
(§2) In the framework of the BISQ questionnaire one or more parameters are observed and recorded that are selected in the group consisting of: nocturnal sleep duration (between the hours of 7 pm and 7 am); daytime sleep duration (between the hours of 7 am and 7 pm); number of night awaking; duration of wakefulness during the night hours (10 pm to 6 am); nocturnal sleep-onset time (the clock time at which the child falls asleep for the night); settling time (latency to falling asleep for the night); method of falling asleep; location of sleep; and preferred body position. […]
A subset of typically developing children (n=92) enrolled in the BCP cohort aged between 0-20 months who were breast-fed at the time of visit were included in this study. […] The collected BMs were analyzed for HMOs, including 2′-Fucosyllactose (2FL), 3′-Fucosyllactose (3FL), 3′-Sialyllactose (3SL), 6′-Sialyllactose (6SL), Lacto-N-tetraose (LNT), Lacto-N-neotetraose (LNnT), Lacto-N-fucopentaose I (LNFP1), and A-Tetrasaccharide. […]

breast-fed children [2] = assay: Association of breast milk HMO levels with BISQ sleep parameters, LIFE Child cohort; type: in vivo, human; settings: 3 months of age
From the text: as §1, §2
A subset of typically developing children enrolled in the LIFE Child cohort aged between 0-12 months who were breast-fed at the time of visit were included in this study. and consists of breast milk samples—collected in mothers at 3, 6 and 12 months after child's birth—and questionnaires—collected during pregnancy and the first year of the child's life—containing information about children sleep and some related confounding factors. the analysis was conducted on 153 subjects at 3 months, 113 subjects at 6 months and 27 subjects at 12 months. The collected BMs were analyzed for HMOs, including 2′-Fucosyllactose (2FL), 3′-Fucosyllactose (3FL), 3′-Sialyllactose (3SL), 6′-Sialyllactose (6SL), Lacto-N-tetraose (LNT), Lacto-N-neotetraose (LNnT), Lacto-N-fucopentaose I (LNFP1), and A-Tetrasaccharide. The association between sleep parameters generated using the BISQ and breast milk HMO levels were evaluated using logistic regression models. […] Both LNT and total core-HMO correlated with total night sleep time assessed by the BISQ (p<0.05, FIGS. 3 and 4 respectively).

Row | SMILES | Correlation of total night-time sleep time with breast milk levels (breast-fed children [1]; BCP-Enriched, n=92, infant aged more than 11 months, p=0.05) | Correlation of total night time sleep with breast milk levels (breast-fed children [1]; BCP-enriched cohort, age >10 months, p<0.05) | Correlation of total night time sleep with breast milk levels (breast-fed children [2]; BISQ, p<0.05, FIGS. 3 and 4) | Dependence of the night sleep association on the method to go to sleep (need of rocking) (breast-fed children [2]; FIG. 3) | Correlation of total sleep time with breast milk levels (breast-fed children [2]; p<0.05, FIG. 2)
1 | CC(=O)N[C@H]1[C@H]([C@H](O)[C@H](O)CO)O[C@@](O[C@H]2[C@@H](O)[C@@H](CO)O[C@@H](O[C@H]3[C@H](O)[C@@H](O)C(O)O[C@@H]3CO)[C@@H]2O)(C(=O)O)C[C@@H]1O (stereo partly drawn) [3SL, (6R)-5-Acetamido-3,5-dideoxy-6-[(1R,2R)-1,2,3-trihydroxypropyl]-β-L-threo-hex-2-ulopyranonosyl-(2→3)-β-D-galactopyranosyl-(1→4)-D-glucopyranose] | correlate positively | significantly correlated |  |  | 
2 | CC(=O)N[C@H]1[C@H](O[C@H]2[C@@H](O)[C@@H](CO)O[C@@H](O[C@H]3[C@H](O)[C@@H](O)C(O)O[C@@H]3CO)[C@@H]2O)O[C@H](CO)[C@@H](O)[C@@H]1O[C@@H]1O[C@H](CO)[C@H](O)[C@H](O)[C@H]1O (some centres unmarked) [LNT, Lacto-N-tetraose] |  |  | significantly correlated | independent of the method to go to sleep | significantly correlated
